{"source": "patent US12269021B2", "about": "“Artificial protein catalyst” (Glytech, Inc., priority 2019, dated 2025)", "origin": "cited, not measured here", "key": {"[1]": {"tested_on": "various cancer cell strains"}, "αvβ3 and αvβ5 integrins": {"tested_on": "αvβ3 and αvβ5 integrins", "settings": "integrins overexpressed on the cancer cell surface"}}}
{"compound": "CC(C)=CCC/C(C)=C/CC/C(C)=C/COc1ccc2ccc(=O)oc2c1", "note": "[Umbelliprenin]", "values": [{"measurement": "cytotoxic activity", "setting": "[1]", "value": "cytotoxic activity"}]}
{"compound": "cRGD", "values": [{"measurement": "integrin inhibition", "setting": "αvβ3 and αvβ5 integrins", "value": "inhibits"}]}
